Source: ChEMBL document CHEMBL4602639, “A novel series of 11-O-carbamoyl-3-O-descladinosyl clarithromycin derivatives bearing 1,2,3-triazole group: Design, synthesis and antibacterial evaluation” (2020)
≈ marks a conversion by molar mass, not a printed value.

Key:
Format in all cases: functional
Streptococcus pyogenes = test: Antibacterial activity against erythromycin resistant Streptococcus pyogenes R1 by standard broth microdilution method
Streptococcus pneumoniae [1] = test: Antibacterial activity against erythromycin-resistant Streptococcus pneumoniae B1 expressing ermB gene by standard broth microdilution method
Escherichia coli = test: Antibacterial activity against penicillin-susceptible Escherichia coli ATCC 25922 by standard broth microdilution method
Streptococcus pneumoniae [2] = test: Antibacterial activity against erythromycin-resistant Streptococcus pneumoniae AB11 expressing ermB and me/A genes by standard broth microdilution method
Bacillus subtilis = test: Antibacterial activity against penicillin-susceptible Bacillus subtilis ATCC 9372 by standard broth microdilution method
Pseudomonas aeruginosa = test: Antibacterial activity against penicillin-susceptible Pseudomonas aeruginosa ATCC 27853 by standard broth microdilution method
Staphylococcus aureus [3] = test: Antibacterial activity against erythromycin-susceptible Staphylococcus aureus ATCC 25923 by standard broth microdilution method
Staphylococcus aureus [4] = test: Antibacterial activity against methicillin-resistant Staphylococcus aureus ATCC 43300 by standard broth microdilution method

| Structure (SMILES) | MIC (Streptococcus pyogenes) | MIC (Streptococcus pneumoniae [1]) | MIC (Escherichia coli) | MIC (Streptococcus pneumoniae [2]) | MIC (Bacillus subtilis) | MIC (Pseudomonas aeruginosa) | MIC (Staphylococcus aureus [3]) | MIC (Staphylococcus aureus [4]) |
| --- | --- | --- | --- | --- | --- | --- | --- | --- |
| CC[C@H]1OC(=O)[C@H](C)C(=O)[C@H](C)[C@@H](O[C@H]2O[C@@H](C)C[C@@H](N(C)C)[C@@H]2O)[C@](C)(OC)C[C@@H](C)C(=O)[C@H](C)[C@@H](OC(=O)NCCn2cc(-c3ccc([N+](=O)[O-])cc3)nn2)[C@]1(C)O | 64 mg/L (≈ 75.6 µM) | 256 mg/L (≈ 302 µM) | > 128 mg/L | 256 mg/L (≈ 302 µM) | 4 mg/L (≈ 4.72 µM) | 128 mg/L (≈ 151 µM) | 16 mg/L (≈ 18.9 µM) | > 256 mg/L |
| CC[C@H]1OC(=O)[C@H](C)C(=O)[C@H](C)[C@@H](O[C@H]2O[C@@H](C)C[C@@H](N(C)C)[C@@H]2O)[C@](C)(OC)C[C@@H](C)C(=O)[C@H](C)[C@@H](OC(=O)NCCn2cc(-c3ccccc3Cl)nn2)[C@]1(C)O | 64 mg/L (≈ 76.5 µM) | 128 mg/L (≈ 153 µM) | > 128 mg/L | 128 mg/L (≈ 153 µM) | 4 mg/L (≈ 4.78 µM) | 128 mg/L (≈ 153 µM) | 8 mg/L (≈ 9.56 µM) | 256 mg/L (≈ 306 µM) |
| CC[C@H]1OC(=O)[C@H](C)C(=O)[C@H](C)[C@@H](O[C@H]2O[C@@H](C)C[C@@H](N(C)C)[C@@H]2O)[C@](C)(OC)C[C@@H](C)C(=O)[C@H](C)[C@@H](OC(=O)NCCn2cc(-c3cccc(N)c3)nn2)[C@]1(C)O | 256 mg/L (≈ 313 µM) | > 256 mg/L | > 128 mg/L | 256 mg/L (≈ 313 µM) | 32 mg/L (≈ 39.2 µM) | 128 mg/L (≈ 157 µM) | 32 mg/L (≈ 39.2 µM) | > 256 mg/L |
| CC[C@H]1OC(=O)[C@H](C)C(=O)[C@H](C)[C@@H](O[C@H]2O[C@@H](C)C[C@@H](N(C)C)[C@@H]2O)[C@](C)(OC)C[C@@H](C)C(=O)[C@H](C)[C@@H](OC(=O)NCCn2cc(-c3ccc(OC)cc3)nn2)[C@]1(C)O | 256 mg/L (≈ 308 µM) | > 256 mg/L | > 128 mg/L | 256 mg/L (≈ 308 µM) | 4 mg/L (≈ 4.81 µM) | 128 mg/L (≈ 154 µM) | 16 mg/L (≈ 19.2 µM) | > 256 mg/L |
| CCc1ccc(-c2cn(CCNC(=O)O[C@@H]3[C@@H](C)C(=O)[C@H](C)C[C@@](C)(OC)[C@H](O[C@H]4O[C@@H](C)C[C@@H](N(C)C)[C@@H]4O)[C@@H](C)C(=O)[C@@H](C)C(=O)O[C@H](CC)[C@@]3(C)O)nn2)cc1 | 128 mg/L (≈ 154 µM) | > 256 mg/L | > 128 mg/L | 256 mg/L (≈ 308 µM) | 4 mg/L (≈ 4.82 µM) | 128 mg/L (≈ 154 µM) | 32 mg/L (≈ 38.6 µM) | > 256 mg/L |
| CC[C@H]1OC(=O)[C@H](C)C(=O)[C@H](C)[C@@H](O[C@H]2O[C@@H](C)C[C@@H](N(C)C)[C@@H]2O)[C@](C)(OC)C[C@@H](C)C(=O)[C@H](C)[C@@H](OC(=O)NCCn2cc(-c3ccccc3OC)nn2)[C@]1(C)O | 256 mg/L (≈ 308 µM) | > 256 mg/L | > 128 mg/L | > 256 mg/L | 4 mg/L (≈ 4.81 µM) | 128 mg/L (≈ 154 µM) | 16 mg/L (≈ 19.2 µM) | > 256 mg/L |
| CC[C@H]1OC(=O)[C@H](C)C(=O)[C@H](C)[C@@H](O[C@H]2O[C@@H](C)C[C@@H](N(C)C)[C@@H]2O)[C@](C)(OC)C[C@@H](C)C(=O)[C@H](C)[C@@H](OC(=O)NCCn2cc(-c3ccccc3)nn2)[C@]1(C)O | 256 mg/L (≈ 319 µM) | 256 mg/L (≈ 319 µM) | > 128 mg/L | 256 mg/L (≈ 319 µM) | 8 mg/L (≈ 9.98 µM) | 128 mg/L (≈ 160 µM) | 32 mg/L (≈ 39.9 µM) | > 256 mg/L |
| CC[C@H]1OC(=O)[C@H](C)C(=O)[C@H](C)[C@@H](O[C@H]2O[C@@H](C)C[C@@H](N(C)C)[C@@H]2O)[C@](C)(OC)C[C@@H](C)C(=O)[C@H](C)[C@@H](OC(=O)NCCn2cc(-c3cccc(F)c3)nn2)[C@]1(C)O | 128 mg/L (≈ 156 µM) | 256 mg/L (≈ 312 µM) | > 128 mg/L | 128 mg/L (≈ 156 µM) | 4 mg/L (≈ 4.88 µM) | 128 mg/L (≈ 156 µM) | 8 mg/L (≈ 9.76 µM) | 256 mg/L (≈ 312 µM) |
| CC[C@H]1OC(=O)[C@H](C)C(=O)[C@H](C)[C@@H](O[C@H]2O[C@@H](C)C[C@@H](N(C)C)[C@@H]2O)[C@](C)(OC)C[C@@H](C)C(=O)[C@H](C)[C@@H](OC(=O)NCCn2cc(-c3cccc([N+](=O)[O-])c3)nn2)[C@]1(C)O | 64 mg/L (≈ 75.6 µM) | 256 mg/L (≈ 302 µM) | > 128 mg/L | 128 mg/L (≈ 151 µM) | 4 mg/L (≈ 4.72 µM) | 128 mg/L (≈ 151 µM) | 8 mg/L (≈ 9.45 µM) | > 256 mg/L |
| CCOc1ccc(-c2cn(CCNC(=O)O[C@@H]3[C@@H](C)C(=O)[C@H](C)C[C@@](C)(OC)[C@H](O[C@H]4O[C@@H](C)C[C@@H](N(C)C)[C@@H]4O)[C@@H](C)C(=O)[C@@H](C)C(=O)O[C@H](CC)[C@@]3(C)O)nn2)cc1 | 128 mg/L (≈ 151 µM) | > 256 mg/L | > 128 mg/L | 256 mg/L (≈ 303 µM) | 16 mg/L (≈ 18.9 µM) | 128 mg/L (≈ 151 µM) | 16 mg/L (≈ 18.9 µM) | > 256 mg/L |
| CC[C@H]1OC(=O)[C@H](C)C(=O)[C@H](C)[C@@H](O[C@H]2O[C@@H](C)C[C@@H](N(C)C)[C@@H]2O)[C@](C)(OC)C[C@@H](C)C(=O)[C@H](C)[C@@H](OC(=O)NCCn2cc(-c3cccc(C)c3)nn2)[C@]1(C)O | 256 mg/L (≈ 314 µM) | > 256 mg/L | > 128 mg/L | 256 mg/L (≈ 314 µM) | 8 mg/L (≈ 9.8 µM) | 128 mg/L (≈ 157 µM) | 32 mg/L (≈ 39.2 µM) | > 256 mg/L |
| CC[C@H]1OC(=O)[C@H](C)[C@@H](O[C@H]2C[C@@](C)(OC)[C@@H](O)[C@H](C)O2)[C@H](C)[C@@H](O[C@@H]2O[C@H](C)C[C@H](N(C)C)[C@H]2O)[C@](C)(O)C[C@@H](C)CN(C)[C@H](C)[C@@H](O)[C@]1(C)O [AZITHROMYCIN] | 256 mg/L (≈ 342 µM) | > 256 mg/L | > 128 mg/L | 256 mg/L (≈ 342 µM) | 0.25 mg/L (≈ 0.334 µM) | 4 mg/L (≈ 5.34 µM) | 0.25 mg/L (≈ 0.334 µM) | > 256 mg/L |
| CC[C@H]1OC(=O)[C@H](C)C(=O)[C@H](C)[C@@H](O[C@H]2O[C@@H](C)C[C@@H](N(C)C)[C@@H]2O)[C@](C)(OC)C[C@@H](C)C(=O)[C@H](C)[C@@H](OC(=O)NCCn2cc(-c3cccc(Br)c3)nn2)[C@]1(C)O | 128 mg/L (≈ 145 µM) | 256 mg/L (≈ 291 µM) | > 128 mg/L | 128 mg/L (≈ 145 µM) | 8 mg/L (≈ 9.08 µM) | 128 mg/L (≈ 145 µM) | 16 mg/L (≈ 18.2 µM) | > 256 mg/L |
| CCCc1ccc(-c2cn(CCNC(=O)O[C@@H]3[C@@H](C)C(=O)[C@H](C)C[C@@](C)(OC)[C@H](O[C@H]4O[C@@H](C)C[C@@H](N(C)C)[C@@H]4O)[C@@H](C)C(=O)[C@@H](C)C(=O)O[C@H](CC)[C@@]3(C)O)nn2)cc1 | 64 mg/L (≈ 75.8 µM) | 256 mg/L (≈ 303 µM) | > 128 mg/L | 128 mg/L (≈ 152 µM) | 8 mg/L (≈ 9.48 µM) | 128 mg/L (≈ 152 µM) | 32 mg/L (≈ 37.9 µM) | 256 mg/L (≈ 303 µM) |
| CC[C@H]1OC(=O)[C@H](C)C(=O)[C@H](C)[C@@H](O[C@H]2O[C@@H](C)C[C@@H](N(C)C)[C@@H]2O)[C@](C)(OC)C[C@@H](C)C(=O)[C@H](C)[C@@H](OC(=O)NCCn2cc(-c3ccc(F)cc3)nn2)[C@]1(C)O | 64 mg/L (≈ 78.1 µM) | 256 mg/L (≈ 312 µM) | > 128 mg/L | 128 mg/L (≈ 156 µM) | 4 mg/L (≈ 4.88 µM) | 128 mg/L (≈ 156 µM) | 16 mg/L (≈ 19.5 µM) | > 256 mg/L |
| CC[C@H]1OC(=O)[C@H](C)C(=O)[C@H](C)[C@@H](O[C@H]2O[C@@H](C)C[C@@H](N(C)C)[C@@H]2O)[C@](C)(OC)C[C@@H](C)C(=O)[C@H](C)[C@@H](OC(=O)NCCCn2cc(-c3ccccc3)nn2)[C@]1(C)O | 64 mg/L (≈ 78.4 µM) | 128 mg/L (≈ 157 µM) | > 128 mg/L | 64 mg/L (≈ 78.4 µM) | 8 mg/L (≈ 9.8 µM) | 128 mg/L (≈ 157 µM) | 8 mg/L (≈ 9.8 µM) | 256 mg/L (≈ 314 µM) |
| CC[C@H]1OC(=O)[C@H](C)C(=O)[C@H](C)[C@@H](O[C@H]2O[C@@H](C)C[C@@H](N(C)C)[C@@H]2O)[C@](C)(OC)C[C@@H](C)C(=O)[C@H](C)[C@@H](OC(=O)NCCn2cc(-c3ccc(C)cc3)nn2)[C@]1(C)O | 256 mg/L (≈ 314 µM) | > 256 mg/L | > 128 mg/L | 256 mg/L (≈ 314 µM) | 8 mg/L (≈ 9.8 µM) | 128 mg/L (≈ 157 µM) | 32 mg/L (≈ 39.2 µM) | > 256 mg/L |
